Laboratory results reported in article PMC8962522, “Direct interaction of TrkA/CD44v3 is essential for NGF-promoted aggressiveness of breast cancer cells” (Journal of Experimental & Clinical Cancer Research : CR, 2022).

What was measured:
Type in all cases: cell-based
[1] = system: CD44v3 in MDA-MB-231 cells; assay: Flow cytometry, plasma membrane CD44v3; conditions: MDA-MB-231, flow cytometry
Excerpt: (§1) The CD44v3- and CD44v6-containing isoforms expressing respectively exon 8 and 11(Fig. 1A) can interact with growth factor receptors. Using COS-7 cells with low CD44 and TrkA expression (Supplementary Fig. 1A-D), we differentially expressed TrkA and CD44s or a CD44 variant, either CD44v3 or CD44v6 (Fig. 1B, supplementary Fig. 2). […] Additionally, we evaluated the expression of TrkA and CD44v3 at the membrane level or in cells by immunofluorescence in MDA-MB-231 cells.
(§2) Supplementary file 13046_2022_2314_MOESM3_ESM.pdf: Additional file 3: Supplementary Figure 1. Validation of the ectopic expression of CD44 and/or TrkA in COS-7 cells. The expression of all CD44 isoforms (A), CD44 variant 3 (B), CD44 variant 6 (C) and TrkA ([…]; D) was evaluated by RT–qPCR (normalized using PUM-1). No expression of CD44, CD44 variants [3 or 6] or TrkA was detected in COS-7 cells (A-D) compared with that in cells transfected with the expression plasmid carrying each protein. […] Quantification of the PLA results was performed using ImageJ software (30 randomly chosen fields per condition of three different experiments). […] CD44v3 and CD44v6 levels at the plasma membrane were assessed by flow cytometry (A-D). The plasma membrane and total TrkA and CD44v3 levels were also quantified by confocal microscopy (E-H). […] The CD44v3/NGF interaction was evaluated using microscale thermophoresis (MST). […]

[2] = system: CD44v6 in MDA-MB-231 cells; assay: Flow cytometry, plasma membrane CD44v6; conditions: MDA-MB-231, flow cytometry
Excerpt: as §1, §2

[3] = system: TrkA phosphorylation; assay: Western blot of TrkA phosphorylation
Excerpt: To further elucidate the mechanism of action of CD44v3 mimetic peptide 4, we studied its effect on the TrkA signaling pathway. First, we performed western blot analysis to determine the effect of mimetic peptide 4 on TrkA phosphorylation (Fig. 5A). […] Therefore, we performed acceptor (photo) bleaching (AB)-FRET to examine the effect of CD44v3 mimetic peptide 4 on NGF-induced RhoA activity in MDA-MB-231 cells transfected with a RhoA FRET biosensor [18] (Fig. 5B). […] Additionally, to confirm that this effect was independent of TrkA phosphorylation, we measured RhoA activation in MDA-MB-231 cells expressing dead TrkA kinase, which cannot be phosphorylated (Fig. 5D). […] Furthermore, a similar decrease in RhoA activation was obtained using the TrkA-H112A mutation, which also prevents the formation of the TrkA/CD44v3 complex in the absence or presence of the TrkA kinase inhibitor k252A (Supplementary Fig. 11B & C, Supplementary Video 1 & 2).
Fig. 5 CD44v3 is implicated in the phospho-TrkA-independent activation of RhoA GTPase. Phosphorylation of TrkA was measured in the presence of a scramble peptide or CD44v3 mimetic peptide 4 (P4) in the presence or absence of NGF (A). Schematic representation of the Rho biosensor; (B). […] Phosphorylation of TrkA and downstream Akt in wild-type MDA-MB-231 and MDA-MB-231 cells expressing kinase-dead TrkA, as determined by western blotting (D). […]

## NGF: recombinant human β-NGF (Alomone Labs, Israel)
[1]; CD44v3-APC, histogram with No stim., NGF (5 min), NGF (30 min)
  increase of plasma membrane CD44v3: 33%
[1]; NGF stimulation
  plasma membrane level of CD44v3 (in words): increased the plasma membrane level of CD44v3
[2]; CD44v6-APC, histogram with No stim., NGF (5 min), NGF (30 min)
  increase of plasma membrane CD44v6: 6%
[2]; NGF stimulation
  plasma membrane level of CD44v6 (in words): increased the plasma membrane level of CD44v3 but not CD44v6

## IDDDEDFISST [Peptide 4, mimetic peptide 4 (…) corresponding to the C-terminal region of CD44v3]
[3]
  effect on NGF-induced TrkA phosphorylation: did not inhibit TrkA phosphorylation induced by NGF
